US4714764A, “2-(4-pyridylaminomethyl)-benzimidazole derivatives having antiviral activity” (Maruishi Seiyaku Kabushiki Kaisha, priority 1985, dated 1987)
Counter-ions that a name gives are not always drawn.

Assays:
enterovirus type 70 = assay: Inhibition of virus cytopathogenic effect (CPE) in LLC-MK2 cells; type: cell-based; settings: for IC50: Enterovirus D, enterovirus type 70, 100-300 TCID50, LLC-MK2 cells, 33° C., examined at 48, 72, 96 and 120 h, read-out: IC50 (lowest concentration that reduced virus CPE by 50% or more); for CI (chemotherapeutic index): CI=CD50 /ID50
[1] = Morphological cytotoxicity in LLC-MK2 cells; type: cell-based; settings: monkey, 33° C., examined at 48, 72, 96 and 120 h, read-out: CD50 (lowest concentration that caused morphological cytotoxicity by 50% or more)

SMILES | IC50 (enterovirus type 70) | CC50 [1] | CI (chemotherapeutic index) (enterovirus type 70)
Cc1cccc2[nH]c(CNc3ccncc3)nc12 [Compound XI, 2-(4-pyridylaminomethyl)-4(7)-methylbenzimidazole dihydrochloride] | > 100 µg/mL | > 100 µg/mL | 
O=C(c1ccccc1)c1ccc2[nH]c(CNc3ccncc3)nc2c1 [Compound III, 2-(4-pyridylaminomethyl)-5(6)-benzoylbenzimidazole dihydrochloride] | > 100 µg/mL | > 100 µg/mL | 
Cl.Cl.c1ccc2[nH]c(CNc3ccncc3)nc2c1 [Compound I, 2-(4-pyridylaminomethyl) benzimidazole dihydrochloride] | 3.7 µg/mL | 562 µg/mL | 152
Cc1cc2nc(CNc3ccncc3)[nH]c2cc1C.Cl.Cl [Compound XII, 2-(4-pyridylaminomethyl)-5,6-dimethylbenzimidazole dihydrochloride] | 3 µg/mL | 707 µg/mL | 239
O=[N+]([O-])c1ccc2[nH]c(CNc3ccncc3)nc2c1 [Compound VI, 2-(4-pyridylaminomethyl)-5(6)-nitrobenzimidazole dihydrochloride] | > 100 µg/mL | > 100 µg/mL | 
FC(F)(F)c1ccc2[nH]c(CNc3ccncc3)nc2c1 [Compound IX, 2-(4-pyridylaminomethyl)-5(6)-trifluoromethylbenzimidazole dihydrochloride] | 5.5 µg/mL | 354 µg/mL | 64
Cl.Cl.Clc1cc2nc(CNc3ccncc3)[nH]c2cc1Cl [Compound VII, 2-(4-pyridylaminomethyl)-5,6-dichlorobenzimidazole dihydrochloride] | 1.4 µg/mL | 177 µg/mL | 126

Further lines, with some results ahead:

IC50 (enterovirus type 70) | SMILES | CC50 [1] | CI (chemotherapeutic index) (enterovirus type 70)
27.6 µg/mL | COc1ccc2[nH]c(CNc3ccncc3)nc2c1 [Compound IV, 2-(4-pyridylaminomethyl)-5(6)-methoxybenzimidazole dihydrochloride] | 1770 µg/mL | 64
> 100 µg/mL | Nc1ccc2[nH]c(CNc3ccncc3)nc2c1 [Compound VIII, 2-(4-pyridylaminomethyl)-5(6)-aminobenzimidazole trihydrochloride] | > 100 µg/mL | 
1.8 µg/mL | Cc1ccc2[nH]c(CNc3ccncc3)nc2c1 [Compound V, 2-(4-pyridylaminomethyl)-5(6)-methylbenzimidazole dihydrochloride] | 562 µg/mL | 311
1.8 µg/mL | Clc1ccc2[nH]c(CNc3ccncc3)nc2c1 [Compound II, 2-(4-pyridylaminomethyl)-5(6)-chlorobenzimidazole dihydrochloride] | 178 µg/mL | 99
0.98 µg/mL | CCc1ccc2[nH]c(CNc3ccncc3)nc2c1 [Compound X, 2-(4-pyridylaminomethyl)-5(6)-ethylbenzimidazole dihydrochloride] | 354 µg/mL | 362
